From article PMC10756276, “Highly specific σ2R/TMEM97 ligand FEM-1689 alleviates neuropathic pain and inhibits the integrated stress response” (Proceedings of the National Academy of Sciences of the …, 2023)
pKi: −log10 of the molar value. Entries after “also recorded” stand apart in the source; their conditions may differ.

Assays:
[1] = test system: mechanical hypersensitivity; set-up: method as in PMID 30157134, PMID 32677089; details: cited from earlier work
[2] = test system: p-ACC in mouse DRG neurons; test: p-ACC immunocytochemistry in cultured DRG neurons; type: cell-based; details: 16 h; FEM-1689 10, 100, 1,000 nM; A769662 100 µM; wild-type and TMEM97KO neurons
Protocol: (§1) The ICC protocol was based on a previously published protocol ([76]). […] Cells were blocked with 10% normal goat serum (NGS) in PBS-triton X (0.1%). […] Antibodies were incubated at 4 °C overnight. […] It was washed with PBS twice. […] Images were analyzed using Olympus CellSens. […] Number of cells analyzed are detailed in SI Appendix, Tables S3 and S4. […]
(§2) T his BSA gradient containing the cells was centrifuged at 900g for 5 min at room temperatur e.
(§3) The pellet containing the cells was resuspended in Br ainPhys media (STEMCell #05790) containing 2% […]
(§4) 1% Gluta Max (Gibco # 350 5 0061). Hu man DRG ne uron s were plated a nd grown o n glass coverslips coate d with po ly-D-lysine (Sigma #P7405). C ultured D RG neurons were plated for 24 hours before being treated.
(§5) Methylglyoxal (Sigma- Aldrich #M0252) and F EM- 1689 were serially diluted in media.
(§6) Mouse samples - DRG cultures […]
(§7) anesthesia and decapitated. […]
(§8) section above with minor differences.
(§9) Mouse DRG neurons were grown in
(§10) SAS-0132 and DKR-1677 were […]
(§11) dissolved in 100% DMSO to a final concentr ation of 200mM and stored at - 20 °C. and DKR-1677 were serially diluted in media. Untreated media was completely replaced with media containing each compound. […]
(§12) Slides were […]
incubated with 1:2 diluted hydrogen peroxide in distilled water for 10 min at r oom temper ature and washed twice in distilled water. […]

[3] = test system: p-eIF2α in mouse DRG neurons; test: p-eIF2α immunocytochemistry in cultured DRG neurons; type: cell-based; details: 16 h; for phosphorylation of eIF2α: wild-type mouse DRG neurons, 10, 30, 100, 300 nM; for p-eIF2α levels: ISRIB 200 nM
Protocol: as §1, §2, §3, §4, §5, §6, §7, §8, §9, §10, §11, §12
(§13) incubated with 1:2 diluted hydrogen peroxide in distilled water for 10 min at r oom temper ature and washed twice in distilled water. The protease IV was applied to each section and incubated for 5 min at room temperature. Slides were w ashed twice in 1X PBS and RNA scope was performed immediately. A mixture of probes - Tmem97, Scn10a, and Fabp7 – was hybridized for 2 hours at 40 °C in a humidity control tray

[4] = test system: models of traumatic brain injury (TBI); details: blast injury and controlled cortical impact models; cited from earlier work
retinal ganglion cells = test system: retinal ganglion cells; set-up: method as in PMID 36456686; details: ischemia/reperfusion injury; cited from earlier work
BiP in mouse DRG neurons = test: BiP immunocytochemistry in cultured DRG neurons; type: cell-based; details: ISRIB 200 nM
Protocol: as §1, §2, §3, §4, §5, §6, §7, §8, §9, §10, §11, §12, §13

[5] = test system: MGO-induced mechanical hypersensitivity, wild-type mice; test: Methylglyoxal-induced mechanical hypersensitivity; type: in vivo, mouse
neurite outgrowth = test system: neurite outgrowth; set-up: method as in PMID 31836389; details: cited from earlier work
[6] = test system: p-eIF2α in human DRG neurons; test: p-eIF2α immunocytochemistry in cultured human DRG neurons; type: cell-based; details: MGO 1 µM
[7] = test system: mouse model of neuropathic pain; set-up: method as in PMID 28644012, PMID 27926996; details: cited from earlier work; for mechanical hypersensitivity / antinociceptive effect: mouse neuropathic pain model
[8] = test system: animal models of age-related neurodegeneration; set-up: method as in PMID 27926996, PMID 29426225; details: cited from earlier work
[9] = test system: neuronal toxicity induced by mutant huntingtin protein; set-up: method as in PMID 36108101; details: model of Huntington's disease; cited from earlier work
BZP Rat Brain = test: PDSP competitive binding assay; details: dose response curve

O=C(O)CCCc1ccccc1 [4-PBA]
duration of efficacy on mechanical hypersensitivity in vivo [1]: hours

N#Cc1c(O)c2c(-c3ccc(-c4ccccc4O)cc3)csc2[nH]c1=O [A769662, reference compound]
p-ACC levels [2]: elevate; also recorded: increased p-ACC levels in both wild-type and TMEM97KO neurons

CCCN1CCN(c2ccc3c(c2)C2CC3CCN2C(=O)OCc2ccccc2)CC1 (stereo not shown) [DKR-1677, reference compound]
phosphorylation of eIF2α [3]: promote the phosphorylation of eIF2α; also recorded: stimulate the ISR by promoting the phosphorylation of eIF2α | protection in traumatic brain injury [4]: protective in two different models of traumatic brain injury | protection of retinal ganglion cells (retinal ganglion cells): protects retinal ganglion cells from ischemia/reperfusion injury

O=C(COc1ccc(Cl)cc1)NC1CCC(NC(=O)COc2ccc(Cl)cc2)CC1 (stereo not shown) [ISRIB, reference compound]
p-eIF2α levels ([3]; TMEM97KO mouse DRG neurons): failed to change p-eIF2α immunoreactivity | p-eIF2α levels ([3]; wild-type mouse DRG neurons): reduced p-eIF2α levels in wild-type neurons | BiP levels (BiP in mouse DRG neurons; TMEM97KO mouse DRG neurons): reduce BiP levels | BiP levels (BiP in mouse DRG neurons; wild-type mouse DRG neurons): reduce BiP levels | time after drug administration at which antiallodynic effects were observed ([5]; ISRIB 2.5 mg/kg IP): 3 h | MGO-induced mechanical hypersensitivity ([5]; MGO 20 ng intraplantar, FEM-1689 20 mg/kg IV or ISRIB 2.5 mg/kg IP 24 h after MGO): transient; also recorded: reverted to a hypersensitive state 24 h after injection | neurite outgrowth (neurite outgrowth): enhances neurite outgrowth | duration of efficacy on mechanical hypersensitivity in vivo [1]: hours

CC(=O)C=O [MGO, Methylglyoxal, reference compound]
p-eIF2α levels [6]: increased p-eIF2α levels

CN1CCN(c2ccc3c(c2)C2CC3CCN2C(=O)OCc2ccccc2)CC1 (stereo not shown) [SAS-0132]
phosphorylation of eIF2α [3]: promote the phosphorylation of eIF2α; also recorded: stimulate the ISR by promoting the phosphorylation of eIF2α | effect on the antinociceptive effects of UKH-1114 [7]: inhibit the antinociceptive effects of UKH-1114; also recorded: blocks the antinociceptive activity of UKH-1114 | mechanical hypersensitivity / antinociceptive effect [7]: has no antinociceptive effect on its own | neuroprotection and cognitive performance [8]: neuroprotective and improves cognitive performance

OCCCN1CCCC2CC1c1cc(-c3ccc(C(F)(F)F)cc3)ccc12 (stereo not shown) [UKH-1114]
mechanical hypersensitivity / antinociceptive effect [7]: alleviates mechanical hypersensitivity following nerve injury | neuronal toxicity [9]: reduces neuronal toxicity

O=C1CN=C(c2ccccc2Cl)c2cc([N+](=O)[O-])ccc2N1 [clonazepam, reference compound]
LogKi, BZP Rat Brain (BZP Rat Brain; given as LogKi with negative sign): -8.89 | pKi (BZP Rat Brain; read-out: Ki, BZP Rat Brain): 8.89
